According to US7998970B2, “Use of finasteride, dutasteride and related compounds for the prevention or treatment of neurologically-associated disorders” (ProteoSys AG, priority 2004, dated 2011):
Where a name gives a salt, the structure may show the parent alone.

Tests used:
[1] = tested on: neurons derived from D3 embryonic stem (ES) cells; assay: Chemical ischemia-induced neuronal death and neuroprotection, cell culture model; type: cell-based, mouse; details: for EC50: Mus musculus, Neuron, read-out: EC50 of neuroprotective effect, chemical ischemia; for neuroprotective effect compared between compounds: each 1 μM, FIG. 3
Description: (§1) For all experiments, D3 embryonic stem (ES) cells derived from 129/sv mice [Okabe et al., 1996] were cultivated for 12 days, with passages on days 2, 4, 7 and 9 as described previously [Sommer et al., 2004]. Insult conditions: Cells (24-well plates) were pre-incubated with or without 20 nM EPO (neuroprotective agent, positive control) in fresh medium for 24 hours at 37° C. Cells were rinsed once with low K^+ solution (140 mM NaCl, 4.7 mM KCl, 1.2 mM KH2PO4, 2.5 mM CaCl2, 1.2 mM MgSO4, 11 mM glucose, 15 mM Hepes-NaOH, pH 7.35). Cells (either with or without EPO pre-incubation) were incubated for up to 45 min (37° C.) with either low K^+ solution or with glucose-free low K^+ solution supplemented with 1 mM KCN chemical ischemia solution [Kume et al., 2002, Schrattenholz et al., 2005]. This insult relates to ischemic conditions in stroke. In addition similar cellular insults were established using glutamatergic agonists to induce excitotoxicity (Sommer et al., 2004) and respective neuroprotection related to stroke and epilepsy; and β-amyloid induced toxicity (incubation of neurons with 10 μM β-amyloid1-40 for 10 min, resulting in Ca-influx and neuronal death) and respective rescue related to Alzheimer's disease. Vitality control to assess numbers of surviving neurons was performed in all of these cases by a brief stimulation with a low dose of glutamate (10 μM). Afterwards, cells were washed three times with ice cold phosphate buffered saline (PBS), and then proteins were harvested. Suspended cells were pelleted at 500×G, and lysed into 9M urea 4% CHAPS. The cell lysate was desalted with a NAP-10 column (Amersham Biosciences), preequilibrated with the same buffer, and protein content was determined.
Functional tests by calcium imaging were performed essentially as described [Sommer et al., 2004]. Briefly, cells were loaded with 2 μM of fura-2 AM in DMEM for 45 min at 37° C. in the dark. Measurements of relative changes in [Ca^2+] were made on an inverted epifluorescence microscope (Olympus IX70 S1F2) with a Polychrom IV Monochromator (Xe-lamp, USHIO). Excitation wavelengths (λ1, λ2) and the emission wavelength were 340, 380 and 510 nm, respectively. Acquisition and analysis of data after appropriate stimulation were performed by using MetaFluor software (Universal Imaging Corporation). Image resolution was 168×129 pixels (binning 8×8, pixel size 6.8×6.8 μm). Only cells identified as neurons by morphological criteria and occasional immunostaining (not shown) and those whose calcium levels returned to the resting state after the first stimulation were taken into account. Controls included nominal zero calcium (negative) and 5 μM ionomycin (positive), 10 μM glutamate (positive) and depolarisation (55 mM K+) (positive). Pharmacological agents were applied by a multi-valve, single-output focal drug application device (ALA Scientific) with the perfusion system DAD-12. […] During each stimulation event 20 image pairs were acquired.

[2] = tested on: neurons derived from D3 embryonic stem (ES) cells; assay: Excitotoxic paradigm (100 μM NMDA), neuroprotection in cell culture model; type: cell-based
Description: as §1
(§2) Functional tests by calcium imaging were performed essentially as described [Sommer et al., 2004]. Briefly, cells were loaded with 2 μM of fura-2 AM in DMEM for 45 min at 37° C. in the dark. Measurements of relative changes in [Ca^2+] were made on an inverted epifluorescence microscope (Olympus IX70 S1F2) with a Polychrom IV Monochromator (Xe-lamp, USHIO). Excitation wavelengths (λ1, λ2) and the emission wavelength were 340, 380 and 510 nm, respectively. Acquisition and analysis of data after appropriate stimulation were performed by using MetaFluor software (Universal Imaging Corporation). Image resolution was 168×129 pixels (binning 8×8, pixel size 6.8×6.8 μm). Only cells identified as neurons by morphological criteria and occasional immunostaining (not shown) and those whose calcium levels returned to the resting state after the first stimulation were taken into account. Controls included nominal zero calcium (negative) and 5 μM ionomycin (positive), 10 μM glutamate (positive) and depolarisation (55 mM K+) (positive). […]

[3] = tested on: neurons derived from D3 embryonic stem (ES) cells; assay: β-amyloid-induced neuronal death (10 μM Aβ1-40), rescue in cell culture model; type: cell-based
Description: as §1, §2

Kv1.5+Kvβ2.1 = molecular target: T1, Kv1.5+Kvβ2.1 (Homo sapiens, UniProt Q13303); assay: K+ channel electrophysiology, inside-out patches of transfected Xenopus oocytes; type: cell-based; details: 1 μM Finasteride; Xenopus oocytes with Kv1.5 and Kvβ2.1, inside-out patches, FIG. 5
T1 construct: expressed in transfected cells; host or cells: Xenopus oocytes
Description: Xenopus oocytes were transfected with various subunit combinations of potassium channels, like Kv1.5+Kvβ2.1. Subsequently activation curves using inside-out patches (external: 2 mM K^+, internal: 96 mM K^+) were measured, they represent IV-curves using standard internal buffer solution (HK+), which were recorded in the presence and absence of 1 μM Finasteride. Corresponding plots of G/Gmax versus the membrane potential were used to evaluate related effects.

[4] = tested on: mitochondrial permeability transition pore (MPTP); assay: Functional test of the MPTP by Rhodamine-123 assay; type: cell-based, mouse; details: for inhibition of release of Rhodamine-123 from mitochondria after opening of the MPTP: 0.5, 1, 10, 20 μM, FIG. 6
Description: Ant1 is one of the essential components of the MPTP, and thus was tested functionally by a fluorescent assay described by Metzger et al. (Metzger et al. Optical assessment of motoneuron function in a “twenty-four-hour” acute spinal cord slice model from fetal rats. Journal of Neuroscience Methods 141, 2005, 309320). Briefly, cells were incubated with Rhodamine-123 ([…]) at 37° C. for 20 min. Rhodamine-123 was dissolved at 5 mg/ml in ethanol. For measurements of the membrane potential ψ, cells loaded with Rhodamine-123 were excited at 480 nm and emission was monitored at 565 nm. The lipophilic cation Rhodamine-123 accumulates in mitochondria where its fluorescence intensity is quenched at high concentrations (Chen, 1988; Scaduto and Grotyohann, 1999). A depolarizing change of ψ is indicated by an increase in the intensity of fluorescence in response to dequenching of the dye after release from mitochondria (Emaus et al., 1986; Duchen, 1992, 2000). Thus we refer to the relative change in ψ as the percentage change in Rhodamine-123 fluorescence (Schuchmann et al., 2000).

G361 cells = assay: Autophagy-related assay employing WIPI-staining; type: cell-based, human; details: 0.25, 0.5, 1.0 or 2.0 μM tested; FIG. 7
Description: The presence of autophagy is quantified by a polyclonal hWIPI-1 antiserum, which was generated by immunizing rabbits (Charles River) with two synthetic peptides representing C-terminal regions in hWIPI-1 (363nkendlrpslp373, 407lrgevipehefatgpv422) and used at a dilution of 1:5000 in ECLWestern blotting detections (Amersham), and at 1:250 for indirect immunofluorescent stainings.
For these stainings, cells were fixed in 3.7% paraformaldehyde (15 min, RT) and analysed by confocal microscopy (see below). To visualize endogenous hWIPI-1 in G361 cells consecutive incubations were conducted using C-terminal hWIPI-1 antiserum at 1:250 (30 min, RT) and Alexa 546 or Alexa 488 labelled goat anti-rabbit IgG (Molecular Probes) at 1:500 (30 min, RT) in PBS/0.1% Tween (blocking/permeabilization: PBS/0.1% Tween/1% BSA, 30 min RT; washing: PBS/0.1% Tween). For nuclear staining, TO-PRO-3 (Molecular Probes) was used at 1:1000. Finally, cells were mounted in Vectashield Mounting Medium (Vector Laboratories) and kept in the dark (41C). Confocal laser scanning microscopy was conducted using a LSM510 microscope (Zeiss) and a 63— 1.4 DIC Plan-Apochromat oil-immersion objective. GFP and Alexa 488 were excited at 488 nm with the internal argon-ion laser. Alexa 546 and TO-PRO-3, respectively, were excited at 543 and 633 nm with helium-neon lasers. […]

β-amyloid plaques = assay: In vivo assay of β-amyloid plaque formation in a mouse model of Alzheimer's disease (APPPS mice)
Description: A quite aggressive model for Alzheimer's disease is a double transgenic mouse line expressing mutated human amyloid precursor protein (APP) and presinilin-1 (PS). Between months 4 and 5 a maximal additional increase of the plaque load of 35-40% can be expected (exponential fit, FIG. 9).
Dutasteride was administered orally every day after animals became 4 months old, for 30 days at a maximum concentration of 2 mg/day.
Technically, images were recorded from whole brain sections (Olympus Fluorescence microscope AX70, Digital camera Casio QV4000; resolution 2240×1680 Pixel, with constant overall intensity in all images) A software-assisted procedure was then used to quantify overall areas of NT12 stain (anti-β-amyloid stain) (plaque area), and NT12 stain volumes in these areas by defining thresholds and relating them to overall proportions of respective slices (plaque volume).

[5] = Mus musculus, Neuron; read-out: EC50 of neuroprotective effect, excitotoxic paradigm (100 μM NMDA)
[6] = Mus musculus, Neuron; read-out: EC50 of neuroprotective effect, β-amyloid toxicity (10 μM Aβ 1-40)
[7] = oral, 30 days, months 4 to 5, plaque area or plaque volume, order not stated

T1 sequence (Q13303 whole entry): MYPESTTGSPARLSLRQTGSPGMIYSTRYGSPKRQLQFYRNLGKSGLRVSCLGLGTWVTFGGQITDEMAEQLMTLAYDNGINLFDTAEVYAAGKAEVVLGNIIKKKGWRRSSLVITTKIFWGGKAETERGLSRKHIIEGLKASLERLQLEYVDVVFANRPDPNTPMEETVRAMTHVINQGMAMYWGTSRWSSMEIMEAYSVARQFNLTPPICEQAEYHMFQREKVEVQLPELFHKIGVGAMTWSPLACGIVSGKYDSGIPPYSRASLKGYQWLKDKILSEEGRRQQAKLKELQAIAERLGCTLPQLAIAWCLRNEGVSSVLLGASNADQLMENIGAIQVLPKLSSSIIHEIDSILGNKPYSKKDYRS
T1 sequence (P22460 whole entry partner): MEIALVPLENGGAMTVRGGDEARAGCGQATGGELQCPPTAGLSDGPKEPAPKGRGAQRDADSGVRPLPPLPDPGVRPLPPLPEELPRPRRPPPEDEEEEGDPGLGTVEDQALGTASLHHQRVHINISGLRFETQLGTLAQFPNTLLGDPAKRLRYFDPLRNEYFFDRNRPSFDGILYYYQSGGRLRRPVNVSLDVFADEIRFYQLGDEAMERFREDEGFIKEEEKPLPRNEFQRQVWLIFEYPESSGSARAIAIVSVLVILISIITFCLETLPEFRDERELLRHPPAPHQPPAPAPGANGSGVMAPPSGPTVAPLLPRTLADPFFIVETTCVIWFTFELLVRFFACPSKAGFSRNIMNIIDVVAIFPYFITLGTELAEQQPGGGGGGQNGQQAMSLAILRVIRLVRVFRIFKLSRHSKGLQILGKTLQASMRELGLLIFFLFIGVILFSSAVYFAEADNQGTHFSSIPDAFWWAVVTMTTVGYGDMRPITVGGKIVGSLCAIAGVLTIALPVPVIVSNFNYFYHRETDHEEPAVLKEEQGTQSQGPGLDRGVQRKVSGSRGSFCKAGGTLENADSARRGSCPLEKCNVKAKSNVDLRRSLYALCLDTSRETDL

Row | SMILES | EC50 [1] [nM] | neuroprotective effect compared between compounds [1] | EC50 [2, 5] [nM] | EC50 [3, 6] [nM] | protection against neuronal death induced by chemical ischemia ([1]; 100 nM-1 μM present during the ischemic insult, FIG. 2) | surviving rate of neurons after chemical ischemia ([1]; 1 μM, control cells 4.8±3.4%) [%] | concentration at which the neuroprotective effect peaks ([1]; dose response, FIG. 2) | shift of the IV-curve (G/Gmax versus membrane potential) (Kv1.5+Kvβ2.1) | inhibition of release of Rhodamine-123 from mitochondria after opening of the MPTP [4] | enhancement of autophagy in surviving G361 cells (G361 cells) | EC50 ([2]; Mus musculus, Neuron, read-out: EC50 of neuroprotective effect, excitotoxic paradigm (100 μM NMDA)) [nM] | EC50 ([3]; Mus musculus, Neuron, read-out: EC50 of neuroprotective effect, β-amyloid toxicity (10 μM Aβ 1-40)) [nM] | inhibition of MPTP-formation and opening during ischemic conditions ([4]; neural derivatives of embryonic stem cells) | overall reduction of plaque load versus non-treated controls, first value of 'respectively' (β-amyloid plaques; [7]) [%] | overall reduction of plaque load versus non-treated controls, second value of 'respectively' (β-amyloid plaques; [7]) [%] | load of β-amyloid plaques (NT12 stain) in treated versus non-treated group (β-amyloid plaques; oral, daily for 30 days from month 4, max 2 mg/day, cortical slices, FIG. 8) | reduction of the plaque load relative to the increase expected between months 4 and 5 (β-amyloid plaques; related to expected increase of 35-40%)
1 | CC12CCC3C(CC[C@H]4NC(=O)CCC34C)C1CCC2C(=O)NCCN (stereo partly drawn) [AEOAA, 4α,6α-dimethyl-2-oxo-hexadecahydro-indeno[5,4-f]quinoline-7-carboxylic-(2-amino-ethyl)-amide hydrochloride] | 5000 | considerably less active | 5000 | 4000 |  |  |  |  |  |  |  |  |  |  |  |  | 
2 | CC(C)(C)NC(=O)[C@H]1CC[C@H]2[C@@H]3CC[C@H]4NC(=O)C=C[C@]4(C)[C@H]3CC[C@]12C [Finasteride, 17β-(N-tert-butylcarbamoyl)-4-aza-5α-androst-1-en-3-one] | 300 | comparable and strongest | 2000 | 100 | substantial protection | 72.1±4.4 | about 1 μM | small shift of the IV-curve towards more negative potential | dose-dependent | dose-dependent effect |  |  |  |  |  |  | 
3 | C[C@]12C=CC(=O)N[C@@H]1CC[C@@H]1[C@@H]2CC[C@]2(C)[C@@H](C(=O)Nc3cc(C(F)(F)F)ccc3C(F)(F)F)CC[C@@H]12 [Dutasteride, 5α,17β-N-[2,5-bis(trifluoromethyl)phenyl]-3-oxo-4-azaandrost-1-ene-17-carboxamide] | 300 | comparable and strongest |  |  |  |  |  |  | dose-dependent | dose-dependent effect | 1500 | 100 | marked and significant inhibition | 12 | 13 | significantly lower | 30-32.5%
4 | CC12CCC3C(CC[C@H]4NC(=O)CCC34C)C1CCC2C(=O)O (stereo partly drawn) [COAAA, 4α,6α-di methyl-2-oxo-hexadecahydro-indeno[5,4-f]quinoline-7-carboxylic-acid] | 1000 | nearly as efficacious | 5000 | 2000 |  |  |  |  |  |  |  |  |  |  |  |  | 
